Values quoted from earlier work, collected in patent US11318113B2, “Compounds for the treatment of diseases linked to mitochondrial reactive oxygen species (ROS) production” (OP2 DRUGS, priority 2015, dated 2022).

Test system: complex I
Details: Orr et al., 2013; cited from earlier work

For `O=[N+]([O-])c1ccc(Oc2ccc(S(=O)(=O)NC3CCCCC3)cc2)cc1` [N-cyclohexyl-4-(4-nitrophenoxy) benzenesulfonamide], the “activity of complex I as a component of the respiratory chain and oxidative phosphorylation” value is given as “does not modify”.
